These results are taken from patent publication US4127687A, “Prevention of fouling of marine structures such as boat hulls” (Rohm and Haas Company, priority 1976, dated 1978).

Values after ≈ are worked out from the molar mass of the structure shown. Where two headings read alike, the source gives them in different places.

Data set [1] concerns weed. Description: Paint panel / plaque tests against weed (Table 2). Type of data set: in vivo, grass-like algal growth common in sea water. The arrangement: key: high performance; medium performance; low performance; poor or unacceptable performance. Conditions: April to November, 1975. An excerpt: (3) PAINT FORMULATION AND TEST PANEL OR PLAQUE TESTS
In order to evaluate the compound under practical conditions, weighed quantities of promising compounds are ground in standard volumes of a selected range of paint media and brushed out on plaques for marine immersion.
The anti-fouling paint formulations used is exemplified by the following: […]
The most preferred specific compounds were utilized in paints including vinyl chloride-vinyl acetate copolymers, chlorinated rubber, acrylic emulsions, and conventional paints with or without rosin to contain 20% by weight of biocide in the wet film and in some cases (Example 144 and Example 145) with concentrations of 5, 10, and 15% based on the wet film. Each of the compounds is also described in the membrane tests noted above. The paints were applied at normal thicknesses to plaques or panels of 10 centimeters by 10 centimeters which were immersed in various positions as described for the raft noted above. The compounds and results, as against weed, in the season April to November, 1975, are as follows: […]

Data set [2] is described as follows: Water solubility by UV spectrophotometric method. The format is physicochemical. The following applies: water. Here is the method: The water solubilities of several isothiazolones were determined by UV spectrophotometric measurements of saturated aqueous solution of each compound in comparison with measurement of solutions of carefully prepared known concentration as outlined in the following example.
DETERMINATION OF SOLUBILITY OF 5-CHLORO-2-(4-FLUOROPHENYL)-4-METHYL-3-ISOTHIAZOLONE OF EXAMPLE 115
A sample of 5-chloro-2-(4-fluorophenyl)-4-methyl-3-isothiazolone (0.0406 g., 1.67 × 10^-4 mole) was dissolved in 50 ml. of methanol. A 5 ml. aliquot of the solution was diluted to 1000 ml. with deionized water, providing a solution of 1.67 × 10^-5 moles/liter concentration. An ultraviolet spectrum of this solution was run using a 10 cm. cell. The absorbance (As) at the wave length of maximum absorption (279 nm.) was 1.208. The molar absorptivity, AM, was calculated from the relationship
where b and c are path length or cell thickness and concentration respectively. Thus, AM was [formula]
Another sample of the compound (0.3-0.5 g.) was stirred vigorously in 40 ml. of deionized water for approximately 72 hrs. to give a saturated solution. The mixture was filtered through very fine filter paper (Whatman No. 50) to remove all suspended solid. Small portions of the filtrate were diluted with water by various factors until an approximately mid-scale absorbance was obtained upon running an ultraviolet spectrum. Such an absorbance was obtained at a dilution of 10. The absorbance was 0.975 in a 10 cm. cell. Using the value for AM obtained earlier, in the equation

The subject of the next data set is Enteromorpha spores. Description: Laboratory toxicity test (Lab Bioassay) with Enteromorpha spores. Type of data set: in vivo. The following applies: using Enteromorpha spores. An excerpt:
Standard laboratory toxicity tests use Enteromorpha spores (zoospores or gametes) but Ectocarpus spores and barnacle nauplii may also be used. During the spore tests additional information on the control of bacterial and diatom slimes becomes available since these organisms are unavoidably introduced with the spore inoculum.
More detailed laboratory toxicity tests on promising compounds determine LD50 values as percentage saturated solution.
^c Using Enteromorpha spores.

For a further data set, the system named is barnacle. Description: Membrane Diffusion Raft Trials, barnacle control. The arrangement: key: 0 = none, + = some, ++ = effective barnacle control. The following applies: membrane test, average 15 to 16 weeks of immersion. Type of data set: in vivo, barnacles. The method in brief: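 Test compound held in a plastic container sealed by a porous membrane, diffusing into surrounding seawater on raft panels alongside standard poisons and a non-toxic control membrane. Settlement timed and quantified by regular inspection; scored 0 (none), + (some) or ++ (effective), averaging 15 to 16 weeks' immersion.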

The nature of data set [3]: Amount of toxicant remaining in the test container after membrane diffusion raft tests. Type of data set: physicochemical. The arrangement: key: 0: empty or trace; +: some; + +: ample. The following applies: after completion of membrane diffusion raft tests. An outline of the steps:
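Known amount of compound held in a cylindrical container sealed with a membrane of known porosity, fixed to a raft panel so toxicant diffuses into the surrounding water. Each panel carries 35 test compounds, 4 standard poisons and 1 non-toxic membrane control. After the trial, container contents inspected visually for remaining toxicant (0 = empty or trace).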

The test system of data set [4] is weed. The data set can be described thus: Membrane Diffusion Raft Trials, weed control. Type of data set: in vivo, grass-like algal growth common in sea water. The arrangement: key: 0 = none, + = some, ++ = effective. The following applies: membrane test, average 15 to 16 weeks of immersion. An outline of the steps: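 Field raft test in sea water: known quantity of compound in container sealed with membrane of known porosity, diffusing into surrounding water; panels at waterline (illuminated, aerated) and flats (poorly lit, deeper). Fouling settlement inspected over about 15-16 weeks average immersion; scored 0 none, + some, ++ effective.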

Data set [5] relates to sea water marine organisms. The data set can be described thus: Effectiveness as sea water marine anti-foulant. Conditions: result in words. The format is in vivo. An excerpt:
The results in anti-fouling paints when utilizing the 3-isothiazolones of the patents noted above, are not predictable from their effectiveness as general biocides, whether against fresh water algae, bacteria, fungi, insects, etc.
Of the compounds appearing hereinafter in the examples, a number are common to Table 1 appearing in columns 9-12 of the U.S. Pat. No. 3,573,488 patent. Among the compounds common to the latter patent and the present specification are the compounds identified in the patent as example numbers 3, 5-8, 13, 23, 24, 33, 36, 37, the n-octyl isomer of examples 38, 40, 75, 76, 79, 84, and 93-96.
In example B of the U.S. Pat. No. 3,573,448 patent (appearing in columns 22-24) involving the control of algae, bacteria, fungi, and slime in fresh water cooling towers, not one of the compounds, or in some cases its homologue or analog, was effective as a salt water marine anti-foulant. […]
In the following examples, two systems of testing the compounds and evaluating the same are utilized. One involves the utilization of a confined amount of the materials to be evaluated in a cylindrical container having an open end covered by a membrane permeable to a limited extent by the sea water and by the compound in the container. The other method involves making up an anti-fouling paint and testing the same. In a four month period, meaningful results are obtained, and for a full scale test, a six month period, bracketing the summer months, is preferred. The evaluations involving (1) field tests, (2) laboratory tests, and (3) paint panel tests, are as follows: […]

Setting [6] is: saturated solution, Table 1, read-out: Solubility by UV method.

Turning to `CCCCCCCCn1scc(Cl)c1=O` [Example 43], in the data set with weed [1], the “Effectiveness in paint V (polyvinyl chloride-acetate)” value was “h” and the “Effectiveness in paint V/R (vinyl/rosin)” value is on record as “h”. The solubility (commonly the dissolved amount per volume that the medium holds) in data set [2] (setting [6]) was determined as 60 µg/mL (≈ 242 µM). For the same compound, the “Lab Bioassay LD50” value with Enteromorpha spores was 0.0003 percentage saturated solution. Moreover, the “Barnacle Control” value in the data set with barnacle came out at 0. In data set [3], the “Contents at the end of test (amount of toxicants remaining in the test container)” value is reported as “+”. Also, in the data set with weed [4], the “Weed Control” value was “+ +”.
Take `CCCCn1sc(Cl)c(Cl)c1=O` [Example 55]: the solubility in data set [2] (setting [6]) was 1000 µg/mL (≈ 4420 µM). Besides, the “Barnacle Control” value in the data set on barnacle is given as “+”. Besides, the “Contents at the end of test (amount of toxicants remaining in the test container)” value in data set [3] is recorded as “+”. In addition, the “effectiveness as anti-foulant in sea water marine environments” value (“effectiveness as anti-foulant” below) in data set [5] was “control or inhibit the growth of one or more sea water marine organisms”. In the data set with weed [4], the “Weed Control” value was “+ +”.
`O=c1ccsn1Cc1ccccc1` [2-benzyl-3-isothiazolone, reference compound]: the “effectiveness as anti-foulant” value is recorded as “not active for controlling sea water marine organisms” in data set [5] and “ineffective as anti-foulants” in data set [5] (listed as benzyl analogue of 2-n-butyl-3-isothiazolone).
With `CCCCCCCCCCCCn1sccc1=O` [Example 5], the “Barnacle Control” value with barnacle amounted to 0. Further, the “Contents at the end of test (amount of toxicants remaining in the test container)” value in data set [3] is “+”. In addition, the “effectiveness as anti-foulant” value in data set [5] is “not active for controlling sea water marine organisms”. Moreover, in the data set on weed [4], the “Weed Control” value is reported as 0.
On to `CCCCCCCCCCn1sccc1=O` [2-n-decyl-3-isothiazolone, reference compound], for which the “effectiveness as anti-foulant” value in data set [5] was “ineffective as anti-foulants”.
As to `Cn1sc(Cl)cc1=O` [5-chloro-2-methyl-3-isothiazolone, reference compound], the “effectiveness as anti-foulant” value in data set [5] is given as “ineffective as anti-foulants”.
Turning to `CCCCn1sccc1=O` [Example 1, 2-n-butyl-3-isothiazolone], the “Barnacle Control” value in the data set on barnacle is on record as 0. For the same compound, the “Contents at the end of test (amount of toxicants remaining in the test container)” value in data set [3] is 0. For the same compound, the “effectiveness as anti-foulant” value in data set [5] is given as “ineffective as anti-foulants”. Also, the “Weed Control” value with weed [4] stood at 0.
As for `Cn1scc(Cl)c1=O` [4-chloro-2-methyl-3-isothiazolone, reference compound], the “effectiveness as anti-foulant” value in data set [5] was “not active for controlling sea water marine organisms”.
For `O=c1cc(Cl)sn1Cc1ccccc1` [5-chloro-2-benzyl-3-isothiazolone], the “effectiveness as anti-foulant” value in data set [5] is given as “effective in both environments”.
With `CCCCCCn1sc(Cl)c(Cl)c1=O` [Example 56], the solubility in data set [2] (setting [6]) worked out at 115 µg/mL (≈ 452 µM). Besides, the “Barnacle Control” value with barnacle was “+ +”. Moreover, in data set [3], the “Contents at the end of test (amount of toxicants remaining in the test container)” value is listed as 0. Further, in data set [5], the “effectiveness as anti-foulant” value was “control or inhibit the growth of one or more sea water marine organisms”. For the same compound, the “Weed Control” value in the data set with weed [4] is listed as “+ +”.
As for `CCCCCCn1sccc1=O` [Example 2, 2-n-hexyl-3-isothiazolone], the solubility in data set [2] (setting [6]) is 5100 µg/mL (≈ 27500 µM). The “Barnacle Control” value in the data set with barnacle is listed as 0. The “Contents at the end of test (amount of toxicants remaining in the test container)” value in data set [3] was determined as 0. The “effectiveness as anti-foulant” value was “not active for controlling sea water marine organisms” in data set [5] and “ineffective as anti-foulants” in data set [5] (listed as hexyl homologue of 2-n-butyl-3-isothiazolone). Also, the “Weed Control” value with weed [4] is listed as 0.
Take `CC(C)(C)CC(C)(C)n1sccc1=O` [Example 4, 2-t-octyl-3-isothiazolone]: the solubility in data set [2] (setting [6]) turned out to be 410 µg/mL (≈ 1920 µM). Further, in the data set with barnacle, the “Barnacle Control” value turned out to be 0. For the same compound, the “Contents at the end of test (amount of toxicants remaining in the test container)” value in data set [3] was 0. Further, the “effectiveness as anti-foulant” value in data set [5] is on record as “not active for controlling sea water marine organisms”. In addition, in the data set with weed [4], the “Weed Control” value amounted to 0.
For `CCCCCCCCCCn1sc(Cl)c(Cl)c1=O` [Example 63], in the data set on weed [1], the “Effectiveness in paint CONV (conventional anti-fouling formulation)” value is listed as “l”, the “Effectiveness in paint CR (chlorinated rubber)” value is listed as “p”, the “Effectiveness in paint CR/R (chlorinated rubber/rosin)” value was “p” and the “Effectiveness in paint EM (acrylic emulsion)” value is recorded as “m”. In the data set with weed [1], the “Effectiveness in paint V (polyvinyl chloride-acetate)” value is given as “m” and the “Effectiveness in paint V/R (vinyl/rosin)” value is given as “m”. The solubility in data set [2] (setting [6]) came to 1.4 µg/mL (≈ 4.51 µM). Further, in the data set on Enteromorpha spores, the “Lab Bioassay LD50” value is 0.03 percentage saturated solution. Further, in the data set on barnacle, the “Barnacle Control” value was 0. Also, the “Contents at the end of test (amount of toxicants remaining in the test container)” value in data set [3] is “+ +”. In the data set with weed [4], the “Weed Control” value is on record as “+ +”.
For the compound `O=c1c(Br)c(Cl)sn1Cc1ccc(Cl)cc1` [Example 91], the solubility in data set [2] (setting [6]) amounted to 3.3 µg/mL (≈ 9.73 µM). Further, in the data set with Enteromorpha spores, the “Lab Bioassay LD50” value was 0.02 percentage saturated solution. Also, the “Barnacle Control” value in the data set with barnacle is given as 0. In addition, the “Contents at the end of test (amount of toxicants remaining in the test container)” value in data set [3] is given as “+”. For the same compound, in the data set on weed [4], the “Weed Control” value was “+ +”.
For the compound `COc1c(Cl)cccc1-n1sc(Cl)c(Cl)c1=O` [Example 79], the “Solubility by UV method: rapidly decomposes (remark)” value in data set [2] (Table 1 solubility column) was “rapidly decomposes”. Further, in the data set with Enteromorpha spores, the “Lab Bioassay LD50” value was 0.065 percentage saturated solution. The “Barnacle Control” value in the data set with barnacle was “+”. The “Contents at the end of test (amount of toxicants remaining in the test container)” value in data set [3] was “+ +”. Besides, the “Weed Control” value in the data set on weed [4] is on record as “+ +”.
As for `CCCCCCCCn1sccc1=O` [Example 3, 2-n-octyl-3-isothiazolone], the solubility in data set [2] is 481 µg/mL (≈ 2250 µM). In addition, the “Barnacle Control” value in the data set with barnacle was 0. Also, the “Contents at the end of test (amount of toxicants remaining in the test container)” value in data set [3] turned out to be 0. For the same compound, the “effectiveness as anti-foulant” value was “not active for controlling sea water marine organisms” in data set [5], “ineffective as anti-foulants” in data set [5] (listed as octyl homologue of 2-n-butyl-3-isothiazolone) and “not active for controlling sea water marine organisms” in data set [5] (listed as octyl homologue of 2-n-decyl-3-isothiazolone). The “Weed Control” value in the data set on weed [4] worked out at 0.
